Measurements: ChEMBL document CHEMBL1201862, “PubChem BioAssay data set” (2004)
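Protocol summary: plate cells (96-well), add compound at 5 concentrations, incubate 48 h, interpolate endpoints linearly. At the GI50, growth is halved.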 Activity calls are given as the source filed them. No stated cut-off is given here; in the data, active = GI50 up to about 1.1 µM and inactive = higher.

Assays:
Assay in all cases: growth of human tumour cells (NCI), 48 h
786-0 = test system: 786-0
A498 = test system: A498
A549 = test system: A549
ACHN = test system: ACHN
CAKI-1 = test system: CAKI-1
CCRF-CEM = test system: CCRF-CEM
COLO 205 = test system: COLO 205
DMS-114 = test system: DMS-114
DMS-273 = test system: DMS-273
EKVX = test system: EKVX
HCT-15 = test system: HCT-15
HL-60 = test system: HL-60
HOP-18 = test system: HOP-18
HOP-62 = test system: HOP-62
HOP-92 = test system: HOP-92
HT-29 = test system: HT-29
IGROV-1 = test system: IGROV-1
K562 = test system: K562
KM-20L2 = test system: KM-20L2
KM12 = test system: KM12
LOX IMVI = test system: LOX IMVI
LXFL 529 = test system: LXFL 529
M14 = test system: M14
M19-MEL = test system: M19-MEL
MOLT-4 = test system: MOLT-4
Malme-3M = test system: Malme-3M
NCI-H226 = test system: NCI-H226
NCI-H23 = test system: NCI-H23
NCI-H460 = test system: NCI-H460
NCI-H522 = test system: NCI-H522
OVCAR-3 = test system: OVCAR-3
OVCAR-4 = test system: OVCAR-4
OVCAR-5 = test system: OVCAR-5
OVCAR-8 = test system: OVCAR-8
RPMI-8226 = test system: RPMI-8226
RXF 393 = test system: RXF 393
SF-268 = test system: SF-268
SF-295 = test system: SF-295
SF-539 = test system: SF-539
SK-MEL-28 = test system: SK-MEL-28
SK-MEL-2 = test system: SK-MEL-2
SK-MEL-5 = test system: SK-MEL-5
SK-OV-3 = test system: SK-OV-3
SN12C = test system: SN12C
SNB-19 = test system: SNB-19
SNB-75 = test system: SNB-75
SW-620 = test system: SW-620
TK-10 = test system: TK-10
U-251 = test system: U-251
UACC-257 = test system: UACC-257
UACC-62 = test system: UACC-62
UO-31 = test system: UO-31
XF498 = test system: XF498
DLD-1 = test system: DLD-1
HCC 2998 = test system: HCC 2998
HCT-116 = test system: HCT-116
SNB-78 = test system: SNB-78
SR = test system: SR

With C=CCNC(=O)N(CCCC(NC(C)=O)C(=O)NCc1ccccc1)Cc1ccccc1 (centres undefined) the GI50 (786-0) was > 100 µM (inactive), the GI50 (A498) was > 100 µM (inactive) and the GI50 (A549) was > 100 µM (inactive). For the same compound, the GI50 (ACHN) was > 100 µM (inactive), the GI50 (CAKI-1) was > 100 µM (inactive) and the GI50 (CCRF-CEM) was > 100 µM (inactive). For the same compound, the GI50 (COLO 205) was > 100 µM (inactive), the GI50 (DMS-114) was > 100 µM (inactive) and the GI50 (DMS-273) was > 100 µM (inactive). The GI50 (EKVX) was > 100 µM (inactive), the GI50 (HCT-15) was greater than 100 µM and the GI50 (HL-60) was > 100 µM (inactive). The GI50 (HOP-18) was > 100 µM (inactive), the GI50 (HOP-62) was > 100 µM (inactive) and the GI50 (HOP-92) was 83 µM (inactive). The GI50 (HT-29) was > 100 µM (inactive), the GI50 (IGROV-1) was > 100 µM (inactive) and the GI50 (K562) was > 100 µM (inactive). The GI50 (KM-20L2) was > 100 µM (inactive), the GI50 (KM12) was > 100 µM (inactive) and the GI50 (LOX IMVI) was > 100 µM (inactive). For the same compound, the GI50 (LXFL 529) was > 100 µM (inactive), the GI50 (M14) was > 100 µM (inactive) and the GI50 (M19-MEL) was > 100 µM (inactive). For the same compound, the GI50 (MOLT-4) was > 100 µM (inactive), the GI50 (Malme-3M) was > 100 µM (inactive) and the GI50 (NCI-H226) was > 100 µM (inactive). For the same compound, the GI50 (NCI-H23) was > 100 µM (inactive), the GI50 (NCI-H460) was > 100 µM (inactive) and the GI50 (NCI-H522) was > 100 µM (inactive). The GI50 (OVCAR-3) was > 100 µM (inactive), the GI50 (OVCAR-4) was > 100 µM (inactive) and the GI50 (OVCAR-5) was > 100 µM (inactive). For the same compound, the GI50 (OVCAR-8) was > 100 µM (inactive), the GI50 (RPMI-8226) was > 100 µM (inactive) and the GI50 (RXF 393) was > 100 µM (inactive). The GI50 (SF-268) was > 100 µM (inactive), the GI50 (SF-295) was > 100 µM (inactive) and the GI50 (SF-539) was > 100 µM (inactive). The GI50 (SK-MEL-28) was > 100 µM (inactive), the GI50 (SK-MEL-2) was > 100 µM (inactive) and the GI50 (SK-MEL-5) was > 100 µM (inactive). The GI50 (SK-OV-3) was > 100 µM (inactive), the GI50 (SN12C) was > 100 µM (inactive) and the GI50 (SNB-19) was > 100 µM (inactive). For the same compound, the GI50 (SNB-75) was > 100 µM (inactive), the GI50 (SW-620) was > 100 µM (inactive) and the GI50 (TK-10) was > 100 µM (inactive). For the same compound, the GI50 (U-251) was > 100 µM (inactive), the GI50 (UACC-257) was > 100 µM (inactive) and the GI50 (UACC-62) was > 100 µM (inactive). For the same compound, the GI50 (UO-31) was > 100 µM (inactive) and the GI50 (XF498) was > 100 µM (inactive).

In the case of N#C/N=C(/NCCc1c[nH]c2ccccc12)Oc1ccccc1, the GI50 (786-0) is reported as 8.57 µM (inactive), the GI50 (A549) is reported as 60.4 µM (inactive) and the GI50 (ACHN) is reported as 27.4 µM (inactive). For the same compound, the GI50 (CCRF-CEM) was 21.9 µM (inactive), the GI50 (COLO 205) was 59 µM (inactive) and the GI50 (DLD-1) was > 100 µM (inactive). The GI50 (DMS-114) was 40.9 µM (inactive), the GI50 (DMS-273) was > 100 µM (inactive) and the GI50 (EKVX) was 26.7 µM (inactive). For the same compound, the GI50 (HCC 2998) was 44 µM (inactive), the GI50 (HCT-116) was 52.5 µM (inactive) and the GI50 (HCT-15) was 56.8 µM. The GI50 (HL-60) was 21.6 µM (inactive), the GI50 (HOP-62) was > 100 µM (inactive) and the GI50 (HT-29) was 34.8 µM (inactive). For the same compound, the GI50 (IGROV-1) was > 100 µM (inactive), the GI50 (K562) was 26.8 µM (inactive) and the GI50 (KM-20L2) was 22.5 µM (inactive). The GI50 (KM12) was 40.8 µM (inactive), the GI50 (LOX IMVI) was 77.4 µM (inactive) and the GI50 (LXFL 529) was 72.8 µM (inactive). The GI50 (M14) was 78.5 µM (inactive), the GI50 (M19-MEL) was 94.8 µM (inactive) and the GI50 (MOLT-4) was 37.1 µM (inactive). The GI50 (NCI-H226) was 77.3 µM (inactive), the GI50 (NCI-H23) was > 100 µM (inactive) and the GI50 (NCI-H460) was 37.1 µM (inactive). For the same compound, the GI50 (OVCAR-3) was > 100 µM (inactive), the GI50 (OVCAR-4) was 73.3 µM (inactive) and the GI50 (OVCAR-5) was > 100 µM (inactive). For the same compound, the GI50 (OVCAR-8) was > 100 µM (inactive), the GI50 (RPMI-8226) was 37.7 µM (inactive) and the GI50 (RXF 393) was > 100 µM (inactive). The GI50 (SF-268) was > 100 µM (inactive), the GI50 (SF-295) was 45.8 µM (inactive) and the GI50 (SF-539) was 97.9 µM (inactive). For the same compound, the GI50 (SK-MEL-28) was > 100 µM (inactive), the GI50 (SK-MEL-5) was 35.6 µM (inactive) and the GI50 (SK-OV-3) was > 100 µM (inactive). The GI50 (SN12C) was > 100 µM (inactive), the GI50 (SNB-19) was 93.5 µM (inactive) and the GI50 (SNB-75) was 43 µM (inactive). For the same compound, the GI50 (SNB-78) was 98.9 µM (inactive), the GI50 (SR) was 35 µM (inactive) and the GI50 (SW-620) was > 100 µM (inactive). For the same compound, the GI50 (TK-10) was 84.5 µM (inactive), the GI50 (U-251) was > 100 µM (inactive) and the GI50 (UACC-257) was > 100 µM (inactive). The GI50 (UACC-62) was 75.3 µM (inactive), the GI50 (UO-31) was 23.4 µM (inactive) and the GI50 (XF498) was 21.1 µM (inactive).
